Literature values as cited in patent publication US20090202444A1 (priority 2009, published 2009).

Test system: bacteria

SMILES: [Ag+] [silver ion]
- silver ion concentration for inhibition of bacterial growth: below 5 ppm
